Earlier results in publication PMC3387528 (Journal of the American Chemical Society, 2011).

Tests used:
dsDNA = settings: substrate dsDNA; no coreagents; pH 7.0, 37 °C; ref [22]
[1] = system: ApA (adenylyl(3′-5′)adenosine); settings: substrate ApA; no coreagents; pH 7.2, 30 °C; ref [28]

Row | k2, expressed as kcat/KM (dsDNA) | SMILES | k2, second-order rate constant [1] [M⁻¹ s⁻¹]
1 | 108 ^b M^−1 min^−1 | [Eu+3] [Eu^3+] | –
2 | – | [Cl][Lu]([Cl])[Cl] [LuCl3] | 0.633
